Data published in ChEMBL document CHEMBL5346905, “2,6-diazaspiro[3.4]octan-7-one derivatives as potent sigma-1 receptor antagonists that enhanced the antinociceptive effect of morphine and rescued morphine tolerance” (Eur J Med Chem, 2023).
pIC50, pKi: −log10 of the molar value. Values belong to the molecule of their own block, whether it stands above or below them. Calls of active or inactive are those of the source. No cut-off for these calls is given here.

How the values were obtained:
[1] = target: T1, Sigma non-opioid intracellular receptor 1 (Cavia porcellus, UniProt Q60492); assay: Displacement of [3H]-pentazocine from sigma1 receptor in guinea pig brain membrane at 1 uM by liquid scintillation counting analysis relative to control; assay type: cell membranes
T1 sequence (Q60492 whole entry): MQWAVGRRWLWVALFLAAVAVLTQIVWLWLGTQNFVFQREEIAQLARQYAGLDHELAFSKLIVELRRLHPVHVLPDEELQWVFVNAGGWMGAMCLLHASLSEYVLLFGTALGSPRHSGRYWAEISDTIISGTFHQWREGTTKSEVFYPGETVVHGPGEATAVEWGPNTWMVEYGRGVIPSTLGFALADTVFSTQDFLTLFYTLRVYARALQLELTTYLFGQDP

[2] = Ratio of drug concentration in brain to plasma in C57BL/6J mouse at 10 mg/kg, ip measured after 1 hrs by LC-MS/MS analysis; assay type: ADME, organism-based; conditions: read-out: BPR
[3] = Half life in C57BL/6J mouse at 10 mg/kg, ip measured after 24 hrs by LC-MS/MS analysis; assay type: ADME, organism-based; conditions: in vivo
[4] = Observed AUC(0 to infinity) in C57BL/6J mouse at 10 mg/kg, ip measured after 24 hrs by LC-MS/MS analysis; assay type: ADME, organism-based; parameters: time 24 hrs, dose 10 mg/kg, route ip; conditions: in vivo
Mus musculus [5] = assay: Reversal of morphine tolerance in morphine tolerant C57BL/6J mouse assessed as maximum possible effect of antinociception at 30 mg/kg, ip pre-treated with morphine followed by compound addition on day 4 by hot plate test (reference value: 5.4%); assay type: functional
[6] = Drug concentration in plasma of C57BL/6J mouse at 10 mg/kg, ip measured after 1 hrs by LC-MS/MS analysis; assay type: ADME, organism-based
Mus musculus [7] = assay: Antinociceptive activity in ip dosed C57BL/6J mouse assessed as reduction in morphine-induced nociceptive response pre-administered with compound followed by morphine addition measured after 30 mins by hot plate test; assay type: functional, organism-based; conditions: dose 0-60 mg/kg
[8] = target: Sigma non-opioid intracellular receptor 1 (Homo sapiens, UniProt Q99720); assay: Antagonist activity at sigma1 receptor (unknown origin)
Chain of Sigma non-opioid intracellular receptor 1 (Homo sapiens, UniProt Q99720) (Q99720 whole entry): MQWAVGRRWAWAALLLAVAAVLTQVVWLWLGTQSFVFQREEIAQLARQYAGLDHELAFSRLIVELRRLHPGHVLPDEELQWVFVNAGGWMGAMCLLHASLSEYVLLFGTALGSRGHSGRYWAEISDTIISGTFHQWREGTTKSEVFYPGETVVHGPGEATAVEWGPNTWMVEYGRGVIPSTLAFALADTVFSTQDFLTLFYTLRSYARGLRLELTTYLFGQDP

[9] = target: T1, Sigma non-opioid intracellular receptor 1; assay: Displacement of [3H]-pentazocine from sigma1 receptor in guinea pig brain membrane assessed as inhibition constant in presence of phenytoin by liquid scintillation counting analysis; assay type: cell membranes
[10] = AUClast in C57BL/6J mouse at 10 mg/kg, ip measured after 24 hrs by LC-MS/MS analysis; assay type: ADME, organism-based; parameters: time 24 hrs, dose 10 mg/kg, route ip; conditions: in vivo
[11] = Drug concentration in plasma of C57BL/6J mouse at 10 mg/kg, ip measured after 4 hrs by LC-MS/MS analysis; assay type: ADME, organism-based
[12] = Tmax in C57BL/6J mouse at 10 mg/kg, ip measured after 24 hrs by LC-MS/MS analysis; assay type: ADME, organism-based; conditions: in vivo
[13] = Drug concentration in brain of C57BL/6J mouse at 10 mg/kg, ip measured after 1 hrs by LC-MS/MS analysis; assay type: ADME, organism-based; conditions: read-out: Drug uptake
[14] = target: Sigma intracellular receptor 2 (Homo sapiens, UniProt Q5BJF2); assay: Antagonist activity at sigma2 receptor (unknown origin)
Chain of Sigma intracellular receptor 2 (Q5BJF2 whole entry): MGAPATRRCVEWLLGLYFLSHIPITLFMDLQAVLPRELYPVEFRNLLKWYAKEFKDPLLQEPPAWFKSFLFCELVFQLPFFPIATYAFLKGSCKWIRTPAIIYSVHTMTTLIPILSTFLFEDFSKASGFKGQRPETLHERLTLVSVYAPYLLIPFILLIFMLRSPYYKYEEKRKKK

Mus musculus [15] = assay: Antinociceptive activity in C57BL/6J mouse assessed as reduction in morphine-induced nociceptive response by measuring morphine ED50 at 30 mg/kg, ip pre-administered with compound followed by morphine addition measured after 30 mins by hot plate test (reference value: 4.3 mg/kg); assay type: functional
[16] = Cmax in C57BL/6J mouse at 10 mg/kg, ip measured after 24 hrs by LC-MS/MS analysis; assay type: ADME, organism-based; parameters: time 24 hrs, dose 10 mg/kg, route ip; conditions: in vivo
Mus musculus [17] = assay: Synergistic antinociceptive activity in C57BL/6J mouse assessed as reduction in morphine-induced nociceptive response at 30 mg/kg, ip pre-administered with compound followed by morphine addition measured after 30 mins in presence of naloxone by hot plate test; assay type: functional, organism-based
Mus musculus [18] = assay: Antinociceptive activity in C57BL/6J mouse assessed as reduction in nociceptive response at 30 mg/kg, ip measured after 30 mins by hot plate test; assay type: functional, organism-based
Mus musculus [19] = assay: Reversal of morphine tolerance in morphine tolerant C57BL/6J mouse assessed as maximum possible effect of antinociception at 30 mg/kg, ip pre-treated with morphine followed by compound addition on day 4 in presence of PRE-084 by hot plate test; assay type: functional, organism-based
Mus musculus [20] = assay: Synergistic antinociceptive activity in C57BL/6J mouse assessed as reduction in morphine-induced nociceptive response at 30 mg/kg, ip pre-administered with compound followed by morphine addition measured after 30 mins in presence of PRE-084 by hot plate test; assay type: functional, organism-based
[21] = Ratio of drug concentration in brain to plasma in C57BL/6J mouse at 10 mg/kg, ip measured after 4 hrs by LC-MS/MS analysis; assay type: ADME, organism-based; conditions: read-out: BPR
[22] = Drug concentration in brain of C57BL/6J mouse at 10 mg/kg, ip measured after 4 hrs by LC-MS/MS analysis; assay type: ADME, organism-based; conditions: read-out: Drug uptake
[23] = target: Mu-type opioid receptor (Homo sapiens) (UniProt P35372); assay: Displacement of [3H]-DAMGO from human MOR expressed in CHO cells at 1 uM incubated for 90 mins by beta-scintillation counting analysis; assay type: cell-based
Chain of Mu-type opioid receptor (Homo sapiens) (P35372 whole entry): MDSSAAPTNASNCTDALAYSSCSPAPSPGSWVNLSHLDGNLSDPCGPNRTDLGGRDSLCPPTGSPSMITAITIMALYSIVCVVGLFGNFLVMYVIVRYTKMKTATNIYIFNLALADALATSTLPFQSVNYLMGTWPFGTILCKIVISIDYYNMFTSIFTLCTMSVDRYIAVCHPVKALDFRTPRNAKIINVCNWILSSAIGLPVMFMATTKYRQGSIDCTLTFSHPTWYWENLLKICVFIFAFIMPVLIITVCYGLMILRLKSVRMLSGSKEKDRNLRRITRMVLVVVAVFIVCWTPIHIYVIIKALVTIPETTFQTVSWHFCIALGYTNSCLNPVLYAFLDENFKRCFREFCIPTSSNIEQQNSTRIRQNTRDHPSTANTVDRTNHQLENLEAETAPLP

[24] = Observed MRT(0 to infinity) in C57BL/6J mouse at 10 mg/kg, ip measured after 24 hrs by LC-MS/MS analysis; assay type: ADME, organism-based; conditions: in vivo
Mus musculus [25] = assay: Synergistic antinociceptive activity in C57BL/6J mouse assessed as reduction in morphine-induced nociceptive response upto 60 mg/kg, ip pre-administered with compound followed by morphine addition measured after 30 mins by hot plate test; assay type: functional, organism-based

Kp at 1 h [2]: 7.38
pKi [1]: 7.84
half-life [3]: 1.42 h
AUC(0-inf) [4]: 2290 ng·h/mL
concentration at 1 h [6]: 513 ng/mL
pIC50 [8]: 7.72
pKi [9]: 7.43
AUC(0-t) at 24 h [10]: 2240 ng·h/mL
concentration at 4 h [11]: 78 ng/mL
Tmax [12]: 0.25 h
concentration at 1 h [13]: 3790 ng/g
pIC50 [14]: 6.64
Cmax [16]: 990 ng/mL
Kp at 4 h [21]: 7.8
concentration at 4 h [22]: 609 ng/g
Activity [23]: 16.5%
MRT inf [24]: 2.08 h
SMILES: Cc1ccc(CCCN2CC3(CC(=O)N(c4ccccc4)C3)C2)cc1
MPE (Mus musculus [5]): 70.5%
Activity (Mus musculus [7]): Dose-Dependent Effect
ED50 (Mus musculus [15]; 0.5 h): 2.3 mg/kg
Activity (Mus musculus [17]): inactive
Activity (Mus musculus [18]): inactive
Activity (Mus musculus [19]): inactive
Activity (Mus musculus [20]): inactive

pKi [1]: 7.35
SMILES: O=C1CC2(CN(CCCc3ccccc3F)C2)CN1c1ccccc1

pKi [1]: 6.76
SMILES: O=C1CC2(CN(CCc3ccccc3)C2)CN1c1ccccc1

pKi [1]: 7.46
SMILES: O=C1CC2(CN(CCCc3ccccc3)C2)CN1c1ccc(F)cc1

pKi [1]: 7.48
SMILES: Cc1cccc(CCCN2CC3(CC(=O)N(c4ccccc4)C3)C2)c1

pKi [1]: 7.30
SMILES: Cc1cccc(N2CC3(CC2=O)CN(CCCc2ccccc2)C3)c1

pKi [1]: 7.31
SMILES: O=C1CC2(CN(CCCc3ccccc3)C2)CN1c1ccccc1

pKi [1]: 7.77
SMILES: O=C1CC2(CN(CCCc3ccc(F)cc3)C2)CN1c1ccccc1

pKi [1]: 7.57
SMILES: O=C1CC2(CN(CCCc3cccc(F)c3)C2)CN1c1ccccc1

pKi [1]: 7.17
SMILES: Cc1ccc(N2CC3(CC2=O)CN(CCCc2ccccc2)C3)cc1

The next lines start with the molecule.

SMILES: Cc1cccc(CCN2CC3(CC(=O)N(c4ccc(F)cc4)C3)C2)c1
pKi [1]: 7.32

SMILES: O=C1CC2(CN(CCc3ccc4ccccc4c3)C2)CN1c1ccccc1
pKi [1]: 7.22

SMILES: O=C1CC2(CN(CCC3CCCCC3)C2)CN1c1ccc(F)cc1
pKi [1]: 7.41

SMILES: CC(Cc1ccccc1)N1CC2(CC(=O)N(c3ccc(F)cc3)C2)C1 (stereo not given)
pKi [1]: 6.74

SMILES: O=C1CC2(CN(CCc3cccc(F)c3)C2)CN1c1ccccc1
pKi [1]: 6.41

SMILES: O=C1CC2(CN(CCC3CCCCC3)C2)CN1c1ccccc1
pKi [1]: 7.37

SMILES: Cc1cc(OCCN2CCOCC2)nn1-c1ccc2ccccc2c1
pKi [1]: 7.89
Activity (Mus musculus [5]): inactive
Activity (Mus musculus [15]): inactive
Activity (Mus musculus [25]): inactive

SMILES: CC(Cc1ccccc1)N1CC2(CC(=O)N(c3ccccc3)C2)C1 (stereo not given)
pKi [1]: 7.39

SMILES: O=C1CC2(CN(CCCc3ccccc3)C2)CN1Cc1ccccc1
pKi [1]: 7.08
